PMC12655172, “Borylated 5-Membered Ring Iminosugars: Synthesis and Biological Evaluation for Glycosidase Inhibition and Anticancer Properties for Application in Boron Neutron Capture Therapy (BNCT)—Part 2” (Pharmaceuticals, 2025)
pIC50: −log10 of the molar value. “And” between values parts separate entries of the source, which are not always exact repeats. Identical values can stand only once.

What was measured:
Type in all cases: biochemical
β-D-glucosidase (almond) = assay: Glycosidase inhibition (Table 3 panel); conditions: 1 mg/mL aqueous solution; run in water
Procedure: (§1) All enzymes and para-nitrophenyl substrates were purchased from Sigma. Enzymes were assayed at 27 °C in citric acid (0.1 M)/disodium hydrogen phosphate (0.2 M) buffers at the optimum pH for the enzyme. The incubation mixture consisted of […] of 1 mg/mL aqueous solution of extract and […] of the appropriate […] para-nitrophenyl substrate made up in buffer at the optimum pH for the enzyme. The reactions were stopped by addition of […] 0.4 M glycine (pH 10.4) during the exponential phase of the reaction, which had been determined at the beginning using uninhibited assays in which water replaced the inhibitor. Final absorbances were read at 405 nm using a Versamax microplate reader (Molecular Devices, Wokingham, UK). Assays were carried out in triplicate, and the values given are means of the three replicates per assay. All reactions were run in water.

[1] = system: α-D-glucosidase (rat intestine); assay: Glycosidase inhibition (Table 3 panel); conditions: 1 mg/mL aqueous solution; run in water
Procedure: as §1

[2] = system: β-D-glucuronidase (bovine liver); assay: Glycosidase inhibition (Table 3 panel); conditions: 1 mg/mL aqueous solution; run in water
Procedure: as §1

[3] = system: N-acetyl-β-D-hexosaminidase (rat intestine); assay: Glycosidase inhibition (Table 3 panel); conditions: 1 mg/mL aqueous solution; run in water
Procedure: as §1

[4] = system: β-D-glucanase (T. Longibrachiatum); assay: Glycosidase inhibition (Table 2 panel); conditions: at 100 μM
[5] = system: β-D-galactosidase (E. coli); assay: Glycosidase inhibition (Table 2 panel); conditions: at 100 μM
α-D-glucosidase (yeast) [6] = molecular target: T1, α-D-glucosidase (yeast) (Saccharomyces cerevisiae, UniProt P53341); assay: Glycosidase inhibition (Table 3 panel); conditions: 1 mg/mL aqueous solution, run in water; for inhibition at 1000 µg/mL (stock): read-out: Percentage inhibition α-D-Glucosidase Yeast
T1 construct: purchased Sigma-Aldrich
T1 sequence (P53341 whole entry): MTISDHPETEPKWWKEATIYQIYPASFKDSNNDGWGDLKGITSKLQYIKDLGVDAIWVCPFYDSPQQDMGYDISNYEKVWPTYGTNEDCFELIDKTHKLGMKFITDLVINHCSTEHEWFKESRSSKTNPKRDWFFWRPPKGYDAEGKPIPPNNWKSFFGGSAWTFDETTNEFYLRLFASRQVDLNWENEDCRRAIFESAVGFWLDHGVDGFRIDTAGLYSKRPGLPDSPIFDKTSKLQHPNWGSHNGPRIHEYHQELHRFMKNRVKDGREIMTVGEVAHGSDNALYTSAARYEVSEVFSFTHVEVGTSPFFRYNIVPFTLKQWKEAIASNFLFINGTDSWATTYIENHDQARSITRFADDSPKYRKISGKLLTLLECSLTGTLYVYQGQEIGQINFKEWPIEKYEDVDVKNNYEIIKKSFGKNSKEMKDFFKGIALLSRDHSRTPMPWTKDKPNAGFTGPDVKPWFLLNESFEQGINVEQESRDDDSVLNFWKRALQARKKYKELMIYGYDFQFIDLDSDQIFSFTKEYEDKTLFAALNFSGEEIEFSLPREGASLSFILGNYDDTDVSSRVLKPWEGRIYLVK
Procedure: All enzymes and para-nitrophenyl substrates were purchased from Sigma. Enzymes were assayed at 27 °C in citric acid (0.1 M)/disodium hydrogen phosphate (0.2 M) buffers at the optimum pH for the enzyme. The incubation mixture consisted of […] of 1 mg/mL aqueous solution of extract and […] of the appropriate 5 μM para-nitrophenyl substrate made up in buffer at the optimum pH for the enzyme. […] Assays were carried out in triplicate, and the values given are means of the three replicates per assay. All reactions were run in water.

[7] = system: β-D-glucosidase (human lysosome); assay: Glycosidase inhibition (Table 2 panel); conditions: at 100 μM
[8] = system: T2, β-D-glucuronidase (E. coli); assay: Glycosidase inhibition (Table 2 panel)
T2 construct: purchased Sigma-Aldrich
Description: (§2) The enzymes α-D-glucosidase (yeast), β-D-glucosidases (almond, bovine liver), α-D-galactosidase (coffee beans), β-D-galactosidase (bovine liver), α-D-mannosidase (Jack bean), β-D-mannosidase (snail), α-L-rhamnosidase (P. decumbens), α-L-fucosidase (bovine kidney), trehalase (porcine kidney), β-D-glucuronidases (E. coli, bovine liver), amyloglucosidase (A. niger), para-nitrophenyl glycosides, and various disaccharides were purchased from Sigma-Aldrich Co (St. Louis, MO, USA).
(§3) Brush border membranes were prepared from the rat small intestine according to the method of Kessler et al., and were assayed at pH 6.8 for rat intestinal maltase using maltose. […] The reaction was stopped by heating at 100 °C for 3 min. After centrifugation (600 g; 10 min), the resulting reaction mixture was added to the Glucose CII-test Wako (Wako Pure Chemical Ind., Osaka, Japan). […] Other glycosidase activities were determined using an appropriate para-nitrophenyl glycoside as substrate at the optimum pH of each enzyme. The reaction mixture contained the substrate ([…]) and the appropriate amount of enzyme. The reaction was stopped by the addition of Na2CO3 (400 μM). The released para-nitrophenol was measured spectrometrically at 400 nm. All reactions were run in methanol.

[9] = system: T3, amyloglucosidase (A. niger); assay: Glycosidase inhibition (Table 2 panel)
T3 construct: purchased Sigma-Aldrich
Description: as §2, §3

α-D-glucosidase (yeast) [10] = molecular target: T1, α-D-glucosidase (yeast); assay: Glycosidase inhibition (Table 2 panel); conditions: for inhibition at 100 µM / inhibition at 1000 µM: read-out: inhibition % α-D-Glucosidase Yeast
Description: as §2, §3

[11] = system: T4, α-L-fucosidase (bovine kidney); assay: Glycosidase inhibition (Table 2 panel); conditions: at 1000 μM
T4 construct: purchased Sigma-Aldrich; host or cells: bovine kidney
Method in brief: (§4)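 pNP-glycoside substrate […], optimum pH per enzyme, […]; quench Na2CO3 […]; A400 for liberated p-nitrophenol.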

[12] = system: T5, α-D-mannosidase (Jack bean); assay: Glycosidase inhibition (Table 2 panel)
T5 construct: purchased Sigma-Aldrich; host or cells: Jack bean
Method in brief: as §4

[13] = molecular target: T6, β-D-galactosidase (bovine liver) (Bos taurus, UniProt F1MNT6); assay: Glycosidase inhibition (Table 2 panel); conditions: at 100 μM
T6 sequence (F1MNT6 1-469): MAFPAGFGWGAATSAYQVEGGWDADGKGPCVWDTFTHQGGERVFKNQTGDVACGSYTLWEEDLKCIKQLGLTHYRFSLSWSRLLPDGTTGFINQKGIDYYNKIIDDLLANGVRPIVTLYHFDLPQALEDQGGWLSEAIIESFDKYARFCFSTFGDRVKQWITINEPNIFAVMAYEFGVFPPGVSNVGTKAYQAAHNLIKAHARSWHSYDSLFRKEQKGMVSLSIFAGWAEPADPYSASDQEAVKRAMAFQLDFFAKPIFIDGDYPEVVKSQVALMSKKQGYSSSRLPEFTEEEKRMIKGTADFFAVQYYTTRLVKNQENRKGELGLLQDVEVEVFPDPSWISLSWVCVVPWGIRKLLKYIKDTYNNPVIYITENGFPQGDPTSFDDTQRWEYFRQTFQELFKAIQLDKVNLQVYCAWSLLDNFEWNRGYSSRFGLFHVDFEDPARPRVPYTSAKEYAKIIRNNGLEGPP
Method in brief: as §4

[14] = system: α-D-glucosidase (human lysosome); assay: Glycosidase inhibition (Table 2 panel); conditions: at 100 μM
[15] = system: β-D-glucuronidase (bovine liver); assay: Glycosidase inhibition (Table 2 panel)
Method in brief: as §4

Row | Structure (SMILES) | Percentage inhibition β-D-Glucosidase Almond (β-D-glucosidase (almond)) [%] | Percentage inhibition α-D-Glucosidase Rat Intestine [1] | Percentage inhibition β-D-Glucuronidase Bovine Liver [2] [%] | Percentage inhibition N-Acetyl-β-D-Hexosaminidase Rat Intestine [3] [%] | inhibition % β-D-Glucanase T. Longibrachiatum [4] | inhibition % β-D-Galactosidase E. coli [5] | inhibition at 1000 µg/mL (stock) (α-D-glucosidase (yeast) [6]) [%] | inhibition % β-D-Glucosidase Human Lysosome [7] | inhibition % β-D-Glucuronidase E. coli ([8]; at 100 μM) | inhibition % β-D-Glucuronidase E. coli ([8]; at 1000 μM) | inhibition % Amyloglucosidase A. niger ([9]; at 100 μM) | inhibition % Amyloglucosidase A. niger ([9]; at 1000 μM) | inhibition at 100 µM (α-D-glucosidase (yeast) [10]) [%] | inhibition % α-L-Fucosidase Bovine Kidney [11] | inhibition % α-D-Mannosidase Jack Bean ([12]; at 100 μM) | inhibition % α-D-Mannosidase Jack Bean ([12]; at 1000 μM) | inhibition at 100 µM [13] [%] | inhibition % α-D-Glucosidase Human Lysosome [14] | inhibition % β-D-Glucuronidase Bovine Liver ([15]; at 100 μM) | inhibition % β-D-Glucuronidase Bovine Liver ([15]; at 1000 μM) | other results
1 | OC[C@H](O)[C@@H]1[C@H](O)[C@H](O)CN1Cc1ccccc1B(O)O [ortho 4, N-(2-Methylphenylboronic acid)-1,4-dideoxy-1,4-imino-L-gulitol] | 49.8 | 17.4% | 2.2 | −0.2 | ^cNI ^d(0%) | ^cNI ^d(14%) | -6.7 | ^cNI ^d(0%) | ^cNI ^d(0%) | ^aNI ^b(31.8%) | ^cNI ^d(0%) | ^aNI ^b(0%) | 0 | ^aNI ^b(1.3%) | ^cNI ^d(5.6%) | ^aNI ^b(0.4%) | 3.3 | ^cNI ^d(2.2%) | ^cNI ^d(0%) | ^aNI ^b(0.9%) | pIC50 (α-D-glucosidase (yeast) [10]; listed as of the 1000 μM series): 3.11
2 | OB(O)c1cccc(CN2C[C@@H](O)[C@H]3OC(O)[C@H](O)[C@H]32)c1 (stereo partly drawn) [meta 3, N-(3-Methylphenylboronic acid)-3,6-dideoxy-3,6-imino-D-gulofuranose] | 61.7 | 12.1% and 8.9% | 13.3 | 8.7 | ^cNI ^d(0%) | ^cNI ^d(0.2%) | -16.7 | ^cNI ^d(6.6%) | ^cNI ^d(16.2%) | ^aNI ^b(36.9%) | ^cNI ^d(24.6%) | ^aNI ^b(1.5%) | 1.4 | ^aNI ^b(3.8%) | ^cNI ^d(0%) | ^aNI ^b(0%) |  | ^cNI ^d(3.5%) | ^cNI ^d(1.2%) | ^aNI ^b(7.2%) | inhibition at 1000 µM (α-D-glucosidase (yeast) [10]): 37%
3 | CC1(C)O[C@H]2O[C@H]3[C@@H]([C@H]2O1)N(Cc1cccc(O)c1)C[C@H]3O [meta 6] | 0.7 | 4.8% | 3.6 | −0.7 | ^cNI ^d(3.1%) | ^cNI ^d(0.8%) | 6.6 | ^cNI ^d(0%) | ^cNI ^d(0%) |  | ^cNI ^d(4.8%) |  | 0 |  | ^cNI ^d(9.5%) |  | 15.5 | ^cNI ^d(3.3%) | ^cNI ^d(1.6%) |  | 
4 | OB(O)c1ccccc1CN1C[C@@H](O)[C@H]2OC(O)[C@H](O)[C@H]21 (stereo partly drawn) [ortho 3, N-(2-Methylphenylboronic acid)-3,6-dideoxy-3,6-imino-D-gulofuranose] | 68.6 | −1.4% | 1.3 | 19.2 | ^cNI ^d(0%) | ^cNI ^d(4.4%) | 4.1 | ^cNI ^d(0%) | ^cNI ^d(0%) | ^aNI ^b(8.4%) | ^cNI ^d(0%) | ^aNI ^b(2.1%) | 2.9 | ^aNI ^b(2.1%) | ^cNI ^d(3.8%) | ^aNI ^b(0%) |  | ^cNI ^d(0.3%) | ^cNI ^d(2.9%) | ^aNI ^b(6.6%) | inhibition at 1000 µM (α-D-glucosidase (yeast) [10]): 1%
5 | CC1(C)O[C@H]2O[C@H]3[C@@H]([C@H]2O1)N(Cc1cccc(B(O)O)c1)C[C@H]3O [meta 5, N-(3-Methylphenylboronic acid)-3,6-dideoxy-3,6-imino-1,2-O-isopropylidene-α-D-glucofuranose] | 7.7 | 11.6% | −0.9 | 5 | ^cNI ^d(0%) | ^cNI ^d(0%) | 14.8 | ^cNI ^d(0%) | ^cNI ^d(4.1%) |  | ^cNI ^d(0%) |  | 7.8 |  | ^cNI ^d(6.3%) |  | 0 | ^cNI ^d(0.3%) | ^cNI ^d(2.9%) |  | Percentage inhibition α-D-Glucosidase Yeast (α-D-glucosidase (yeast) [6]): 13.7%
6 | CC1(C)O[C@H]2O[C@H]3[C@@H]([C@H]2O1)N(Cc1ccccc1B(O)O)C[C@H]3O [ortho 5] | 8.7 | 4.2% | 1.4 | 5.2 | ^cNI ^d(5.2%) | ^cNI ^d(0%) | 8.7 | ^cNI ^d(3.5%) | ^cNI ^d(1.2%) |  | ^cNI ^d(4.9%) |  | 0 |  | ^cNI ^d(12.9%) |  | 6.1 | ^cNI ^d(0%) | ^cNI ^d(0%) |  | Percentage inhibition α-D-Glucosidase Yeast (α-D-glucosidase (yeast) [6]): 11%
